For the assay, the system named is human sperm. The assay is described as follows: Efficacy of metal salts, albumin and dextran on motility of human sperm in vitro. The note with it: for concentration at which spermiostatic (motility of sperm arrested): human sperm in vitro.

For `[Ca+2].[Cl-].[Cl-]` [calcium chloride], the “concentration at which spermiostatic (motility of sperm arrested)” value (shortened to “concentration at which spermiostatic”) is 25 mM.
Regarding “dihydrate ferrous gluconate [dihydrate form of ferrous gluconate]”, the “onset of spermiostatic effect” value (dihydrate form of ferrous gluconate) is reported as “immediate”.
For `[Cl-].[Cl-].[Mg+2]` [magnesium chloride], the “concentration at which spermiostatic” value is 35 mM.
`O=S(=O)([O-])[O-].[Cu+2]` [copper sulfate]: the “concentration at which spermiostatic” value is given as 6.25 mM. Besides, the immobilization of sperm (25 mM solution) is recorded as 93.3%. Further, the immobilization of sperm result (37.5 mM solution) was “completely immobilized all the sperm”. Further, the additional spermiostatic effect result (2.5% dextran added to 6.5-mM copper sulfate solution) is reported as “no additional spermiostatic effect”.
For the compound ferrous gluconate, the “concentration at which spermiostatic” value was determined as 12.5 mM. In addition, the immobilization of sperm (25 mM solution) worked out at 97.4%. Also, the immobilization of sperm entry (37.5 mM solution) is given as “completely immobilized all the sperm”. The additional spermiostatic effect entry (2.5% dextran added to 12.5-mM ferrous gluconate solution) was “no additional spermiostatic effect”. The “enhancement of the spermiostatic effect” value (2.5% dextran and 5% albumin added to 12.5 mM ferrous gluconate) is “no enhancement of the spermiostatic effect”.
